In patent US8399416B2, “Method of using heparin binding motif for treating asthma” (National Tsing Hua University, priority 2008, dated 2013):
Where a chain is given by its changes, count along the chain named. No end group written: not given here.

What was measured:
ECP wt = target: T1, ECP wt (Homo sapiens, UniProt P12724); assay: Intrinsic tryptophan fluorescence titration of ECP wt with heparin oligosaccharides; assay type: binding; conditions: read-out: Kd, ECP wt, PBS at 25° C.
T1 construct: His6 (C); made in house; host or cells: E. coli BL21-CodonPlus (DE3)
T1 sequence (P12724 28-160): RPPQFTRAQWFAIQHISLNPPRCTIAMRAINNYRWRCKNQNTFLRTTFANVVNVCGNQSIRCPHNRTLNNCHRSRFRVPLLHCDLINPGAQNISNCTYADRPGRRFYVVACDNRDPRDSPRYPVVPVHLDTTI
Method: (§1) FIG. 5. ITFE profiles of ECP wt and mt1 with dp5. Tryptophan titration emission spectra of […] ECP wt or mt1 bound with dp5. The emission spectra at 340 nm were recorded. The resulting isotherms were fitted by nonlinear regression least-squares computer fit using the KaleidaGraph Synergy Software. ΔF, the relative fluorescence change, equals F0−Fobs, where F0 and Fobs represent the initial and observed fluorescence values, respectively.
(§2) The binding affinities of wild-type and mutant ECP for heparin oligosaccharides were subsequently monitored by intrinsic tryptophan fluorescence titration (Lau, E. K., et al. (2004) The Journal of biological chemistry 279, 22294-22305).
(§3) Binding of ECP to heparin was monitored by changes in intrinsic tryptophan fluorescence emission (IFTE). ECP (200 nM) in PBS at 25° C. was titrated with small aliquots of a high concentration of pentasaccharides with minimal dilution (<2%). Protein fluorescence measurements were recorded 2 min after each addition on a Hitachi 8000 spectrofluorimeter at emission wavelength of 340 nm using an excitation wavelength of 280 nm. ΔF, the relative fluorescence change, equals F0−Fobs, where F0 and Fobs represent the initial and observed fluorescence values, respectively. […]

ECP mt1 = target: T2, ECP mt1 (Homo sapiens, UniProt P12724, K65A/R61A/R63A/W62A); assay: Intrinsic tryptophan fluorescence titration of ECP mt1 with heparin oligosaccharides; assay type: binding; conditions: read-out: Kd, ECP mt1, PBS at 25° C.
T2 construct: recombinant mature ECP was injected into the rat circulation; His6 (C); made in house; host or cells: E. coli BL21-CodonPlus(DE3)
T2 sequence (P12724 28-160 R61A/W62A/R63A/K65A): T1 sequence (P12724 28-160) with R34A, W35A, R36A, K38A
Method: as §1
Amino acid residues R34, W35, R36, and K38 of ECP were simultaneously substituted to alanine using QuickChange site-directed mutagenesis (Stratagene, La Jolla, Calif.) and the resultant mutant was named ECP mt1. […]
as §2
as §3, with “ECP (200 nM) in PBS at 25° C. was titrated with small aliquots of a high concentration of pentasaccharides with minimal dilution (<2%).” left out

C1 peptide = C1 peptide (Homo sapiens, UniProt P12724); assay: Tryptophan fluorescence titration of C1 peptide with heparin oligosaccharides; assay type: binding; conditions: read-out: Kd, C1 peptide; 1 μM peptide; tryptophan fluorescence at 340 nm
Method: FIG. 10. Titration profiles of synthetic peptides by synthetic heparin oligosaccharides. Titrations were carried out on 1 μM peptides in the presence of heparin oligosaccharides. The Kd of each peptide-oligosaccharide interaction was determined by measuring the fluorescence change of intrinsic tryptophan at 340 nm. Data were fitted to a single-binding-site curve using nonlinear least-squares analysis.
as §3

Beas-2B cells = conditions: biotinylated peptides, 1 h at 4° C.
Method: FIG. 7. Synthetic peptides inhibit ECP binding to cells. A, Beas-2B cells were preincubated with peptides in RPMI 1640 medium for 30 min at 4° C. before incubation with MBP-ECP for an additional 1 h. After treatment, the cells were washed with PBS and fixed with PFA. The level of bound MBP-ECP was assessed by ELISA. The amount of MBP-ECP bound to cells without peptide treatment was set to 100%. The data shown are the means of triplicate experiments. B, Beas2-B cells were incubated with biotinylated peptides for 1 h at 4° C. The amount of peptides bound to cells was assessed as for FIG. 3.
To investigate whether the RWRCK (SEQ ID NO: 8) motif is directly responsible for heparin binding, cell ELISA was conducted using a synthetic peptide, C1 (SEQ ID NO: 3), along with a positive control peptide derived from HIV-TAT, TAT (SEQ ID NO: 6) (Vives, E., et al. (1997) The Journal of biological chemistry 272, 16010-16017; Ziegler, A. and Seelig, J. (2004) Biophysical journal 86, 254-263). […] Therefore, synthetic peptides with heparin binding activity may compete with ECP for cellular binding. Furthermore, the cell surface binding ability of peptides was tested using cell ELISA assay.

[1] = AMAC-labeled LMWH, increasing peptide concentrations, room temperature 15 min
Method: FIG. 9. FACE analysis of synthetic peptides. AMAC-labeled LMWH were incubated without or with increasing concentrations of C1, TAT, D1 and R1 peptides at room temperature for 15 min. Samples were loaded and separated by agarose gel electrophoresis as described for FIG. 2.
Synthetic heparin oligosaccharide (FIG. 1) (Lee, C. J., et al. (2004) J Am Chem Soc 126, 476-477), low molecular weight heparin (LMWH) and PI-88 (kindly provided by Progen Inc., Australia) were labeled with 2-aminoacridone (AMAC) as described (Calabro, A., et al. (2000) Glycobiology 10, 273-281). AMAC-oligosaccharide and proteins were incubated at room temperature for 15 min, loaded onto 1% gels and electrophoresed as described (Holmes, O., et al. (2007) J Mol Biol 367, 395-408).
In addition, because EDN contains a conventional heparin binding sequence, the corresponding peptide, D1 (SEQ ID NO: 4), was also synthesized and tested.

[2] = PBS buffer at 25° C.; HMWH 10-20 μM
Method: FIG. 11. Isothermal titration calorimetry of heparin-peptide interaction. The top panels show the differential power time course. Raw data for sequential 6-μl injections of each synthetic peptide in PBS buffer at 25° C. TAT (positive control), B, R1 (negative control), C, C1, and D, D1 into the sample cell containing 1.4 ml HMWH solution (10-20 μM). The total heat released in each injection is proportional to the area under the corresponding peak. […] The solid line represents a non-linear least squares of the reaction heat for the injection.

[3] = test system: peri-bronchiolar and alveolar inflammation; design: species or system mice; conditions: mouse, in vivo
From the text: FIG. 15. Tissue pathology staining in mice. 5-μm formalin-fixed lung sections were stained with H & E in (A) control (B) mIT, (C) eIN, (D) eIN+mIT, (E) mIT+eIN and (F) eIN+mIT+eIN mice. (G) Peribronchial and alveolar inflammation scores.
Animals Study protocol Female Balb/c mice 8 weeks of age were obtained from the National Laboratory Breeding Research Center in Taiwan and were raised in a specific pathogen-free environment. The mice were divided into six groups: (1) control, (2) mite intra-tracheal (mIT) alone, (3) ECP^32-41 (SEQ ID NO: 9) intranasal, (eIN) alone, (4) pre-treated group: eIN+mIT, (5) post-treated group: mIT+eIN and (6) pre+post-treated group eIN+mIT+eIN. Mite crude extract allergen (1.6 μg/μl) was prepared and well emulsified in complete Freund's adjuvant (CFA; Sigma, St Louis, Mo., USA) at a ratio of 1:1 at 4° C. The mIT, eIN and eIN+mIT groups were immunized subcutaneously with 50 μl emulsified mite protein on day 1 and day 8. […]
Histopathological analysis Lung sections stained with hematoxylin and eosin (H&E) were assigned a unit value for alveolar, peri-bronchiolar and total inflammation by computing the means of three independent scores for three randomly selected view-fields. […] Total inflammatory scores were determined as the sum of the peri-bronchiolar and alveolar inflammatory scores. […]

[4] = test system: ECP binding to Beas-2B cells; assay: Competitive inhibition of MBP-ECP binding to Beas-2B cells (cell ELISA); assay type: cell-based, human; conditions: Beas-2B cells preincubated with peptides 30 min at 4° C.
Method: FIG. 3. Heparin oligosaccharides inhibit ECP binding to cells. […] The amount of MBP-ECP bound to cells without GAG treatment was set to 100%. C, control (cells were incubated with MBP.) The data shown are the means of triplicate experiments.
FIG. 7. Synthetic peptides inhibit ECP binding to cells. […] The data shown are the means of triplicate experiments.
Beas-2B, a human bronchial epithelial cell line, was cultured in RPMI 1640 medium (Sigma-Aldrich) supplemented with heat-inactivated 10% fetal bovine serum (Gibco/Invitrogen, Carlsbad, Calif.).
The ability of MBP-ECP to bind cells in the presence of serial dilutions of oligosaccharides or peptides was determined as described (Fan, T. C., et al. (2007) Traffic 8, 1778-1795). At the present invention, synthetic heparins (dp3-9) were tested for their ability to interfere with ECP binding to Beas-2B cells. Briefly, confluent monolayers of Beas-2B cells in 96-well plates were pretreated with various concentrations of oligosaccharides or peptides in serum-free RPMI 1640 medium at 4° C. for 30 min before incubation with 5 μg/ml MBP-ECP at 4° C. for 1 h. The cells were then washed with ice-cold PBS and fixed with 2% PFA at room temperature for 15 min prior to blocking with 2% BSA/PBS at room temperature for 90 min. The level of bound MBP-ECP was quantified by ELISA analysis. MBP-ECP was detected using mouse monoclonal anti-MBP and goat anti-mouse horseradish peroxidase (HRP)-conjugated secondary antibody, followed by the enhanced chemiluminescence detection system. The amount of MBP-ECP bound to cells without oligosaccharide or peptide treatment was set to 100%.

Compound | Kd (ECP wt) [nM] | Kd (ECP mt1) [nM] | Kd (C1 peptide) [nM] | cell surface binding ability of peptides (Beas-2B cells) | interaction with LMWH (FACE) [1] | heat release on binding to HMWH (ITC) [2] | allergic airway inflammatory pathologies (H&E) [3] | binding of MBP-ECP to cell-surface HS in the presence of peptide [4]
CO[C@H]1O[C@H](COS(=O)(=O)O)[C@@H](O[C@@H]2O[C@@H](C(=O)O)[C@@H](O[C@H]3O[C@H](COS(=O)(=O)O)[C@@H](O[C@@H]4O[C@@H](C(=O)O)[C@@H](O[C@H]5O[C@H](COS(=O)(=O)O)[C@@H](O[C@@H]6O[C@@H](C(=O)O)[C@@H](O[C@H]7O[C@H](COS(=O)(=O)O)[C@@H](O[C@@H]8O[C@@H](C(=O)O)[C@@H](O[C@H]9O[C@H](COS(=O)(=O)O)[C@@H](O)[C@H](O)[C@H]9NS(=O)(=O)O)[C@H](O)[C@H]8OS(=O)(=O)O)[C@H](O)[C@H]7NS(=O)(=O)O)[C@H](O)[C@H]6OS(=O)(=O)O)[C@H](O)[C@H]5NS(=O)(=O)O)[C@H](O)[C@H]4OS(=O)(=O)O)[C@H](O)[C@H]3NS(=O)(=O)O)[C@H](O)[C@H]2OS(=O)(=O)O)[C@H](O)[C@H]1NS(=O)(=O)O [dp9] | 62.6 | 400 | 229 |  |  |  |  | 
MTQGRCKPVNK-biotin [R1] |  |  |  | devoid of such function | did not bind heparin | no heat release |  | 
NYRWRCKNQN [ECP^32-41] |  |  |  |  |  |  | did not demonstrate allergic airway inflammatory pathologies | 
NYRWRCKNQNK-biotin [C1] |  |  |  | bound to the cell surface | decreased amount of free AMAC-LMWH signal | exothermal reaction modes were clearly observed |  | significantly reduced
YGRKKRRQRRRK-biotin [TAT] |  |  |  | bound to the cell surface | decreased amount of free AMAC-LMWH signal | significant exothermal reaction mode |  | significantly reduced
